Data set [1] relates to Plasmodium falciparum. The data set can be described thus: Antimalarial activity against blood stage Plasmodium falciparum 3D7 assessed as reduction in parasite growth incubated for 72 hrs by SYBR Green dye based fluorescence assay. The format is functional, organism-based. The following applies: for pEC50: 3D7, 72 h.
In data set [2] the test system is HepG2. In words: Cytotoxicity against human HepG2 cells assessed as reduction in cell viability by CellTiter-Glo assay. The format is toxicity, cell-based. For orientation: In ATP-based viability assays light output follows the ATP content of the culture.
Data set [3] is described as follows: Kinetic solubility of the compound at pH 7.4. The format is physicochemical. The following applies: buffer, read-out: Kinetic_solubility.
The nature of data set [4]: Apparent permeability of compound by PAMPA assay. In kind it is ADME. Background: In PAMPA a lipid-coated filter parts donor from acceptor wells.
For data set [5], the target named is Calcium-dependent protein kinase 1 (Plasmodium falciparum) (UniProt P62344). The data set can be described thus: Inhibition of plasmodium falciparum CDPK1 assessed as remaining activity at 1 uM by Kinomescan method relative to control. The following applies: time 2.0 hrs.
The subject of a further data set is Plasmodium berghei. In words: Antimalarial activity against liver stage Plasmodium berghei ANKA sporozoites in human HepG2 cells assessed as reduction in parasite load measured after 44 hrs by […] reagent based […] analysis. The format is functional, organism-based.
For data set [6], the system named is HepG2. The data set can be described thus: Cytotoxicity against human HepG2 cells infected with liver stage Plasmodium berghei ANKA sporozoites assessed as reduction in cell viability measured after 44 hrs by […] assay. In kind it is toxicity, cell-based. The following applies: hepg2, 44 h.
The nature of data set [7]: Microsomal stability in mouse liver microsomes assessed as parent compound remaining at 5 uM measured after 30 mins in presence of NADPH. The format is ADME, Microsome. The following applies: 0.5 h. (Microsomes from liver hold many membrane-bound enzymes, among them those of drug oxidation.)
In data set [8] the test system is Plasmodium falciparum. In words: Inhibition of plasmodium falciparum ARK1 assessed as remaining activity at 1 uM incubated for 2 hrs by luciferin-based luminescence assay relative to control.
Data set [9] concerns Plasmodium falciparum. The data set can be described thus: Inhibition of plasmodium falciparum CDPK5 assessed as remaining activity at 1 uM incubated for 2 hrs by luciferin-based luminescence assay relative to control.
The target of data set [10] is T1, Glycogen synthase kinase 3 (Plasmodium falciparum (isolate 3D7)) (UniProt O77344).
T1 sequence (whole entry): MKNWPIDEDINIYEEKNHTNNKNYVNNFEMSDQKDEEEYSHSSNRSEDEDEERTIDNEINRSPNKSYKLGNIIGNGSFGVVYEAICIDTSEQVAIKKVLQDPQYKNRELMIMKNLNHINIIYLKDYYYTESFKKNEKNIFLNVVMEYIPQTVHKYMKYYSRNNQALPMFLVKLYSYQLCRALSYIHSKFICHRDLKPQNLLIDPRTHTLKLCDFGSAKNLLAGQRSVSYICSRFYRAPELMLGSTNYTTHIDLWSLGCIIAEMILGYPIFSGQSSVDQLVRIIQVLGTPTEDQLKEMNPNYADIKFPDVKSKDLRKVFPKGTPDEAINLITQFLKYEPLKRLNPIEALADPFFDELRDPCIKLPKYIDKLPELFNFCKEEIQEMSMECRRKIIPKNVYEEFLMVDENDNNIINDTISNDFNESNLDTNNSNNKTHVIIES
In words: Inhibition of plasmodium falciparum GSK3 assessed as remaining activity at 1 uM incubated for 2 hrs by luciferin-based luminescence assay relative to control.

In data set [11] the test system is Plasmodium falciparum. In words: Inhibition of plasmodium falciparum NEK1 assessed as remaining activity at 1 uM incubated for 2 hrs by luciferin-based luminescence assay relative to control.
The test system of data set [12] is Plasmodium falciparum. The data set can be described thus: Inhibition of plasmodium falciparum NEK3 assessed as remaining activity at 1 uM incubated for 2 hrs by luciferin-based luminescence assay relative to control.
Data set [13] concerns Plasmodium falciparum. In words: Inhibition of plasmodium falciparum PK5 assessed as remaining activity at 1 uM incubated for 2 hrs by luciferin-based luminescence assay relative to control.
For data set [14], the system named is Plasmodium falciparum. In words: Inhibition of plasmodium falciparum PK9 assessed as remaining activity at 1 uM incubated for 2 hrs by luciferin-based luminescence assay relative to control.
Data set [15] concerns Plasmodium falciparum. The data set can be described thus: Inhibition of plasmodium falciparum PKB assessed as remaining activity at 1 uM incubated for 2 hrs by luciferin-based luminescence assay relative to control.
For data set [16], the system named is Plasmodium falciparum. The data set can be described thus: Inhibition of plasmodium falciparum PK5 assessed as remaining activity at 1 uM by Kinomescan method relative to control.
In data set [17] the test system is Plasmodium falciparum. In words: Inhibition of plasmodium falciparum CDPK2 assessed as remaining activity at 1 uM incubated for 2 hrs by luciferin-based luminescence assay relative to control.
The nature of data set [18]: Microsomal stability in human liver microsomes assessed as parent compound remaining at 5 uM measured after 30 mins in presence of NADPH. The following applies: 0.5 h. In kind it is ADME, Microsome.
For data set [19], the system named is Plasmodium falciparum. The data set can be described thus: Inhibition of plasmodium falciparum ARK3 assessed as remaining activity at 1 uM incubated for 2 hrs by luciferin-based luminescence assay relative to control.
Data set [20] deals with T2, Cdk-related protein kinase 6 (Plasmodium falciparum, UniProt O77239).
T2 sequence (O77239 whole entry): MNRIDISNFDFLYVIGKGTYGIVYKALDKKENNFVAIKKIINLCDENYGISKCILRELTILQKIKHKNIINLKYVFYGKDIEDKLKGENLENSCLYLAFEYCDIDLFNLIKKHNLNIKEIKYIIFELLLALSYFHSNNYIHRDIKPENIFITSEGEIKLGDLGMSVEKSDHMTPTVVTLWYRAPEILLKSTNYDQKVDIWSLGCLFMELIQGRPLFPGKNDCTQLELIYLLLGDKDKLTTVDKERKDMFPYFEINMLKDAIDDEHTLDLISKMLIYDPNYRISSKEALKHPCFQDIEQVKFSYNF
Description: Inhibition of N-terminal 6His-tagged plasmodium falciparum PK6 expressed in Escherichia coli BL21(DE3) incubated for 15 mins in presence of [gamma-32p]ATP and ATP by SDS-PAGE based autoradiography analysis

The target in data set [21] is T3, Cdk-related protein kinase 6 (Plasmodium falciparum) (UniProt O77239).
T3 sequence (whole entry): T2 sequence (O77239 whole entry)
In words: Inhibition of plasmodium falciparum PK6 assessed as remaining activity at 1 uM incubated for 2 hrs by luciferin-based luminescence assay relative to control.

pEC50, pIC50: −log10 of the molar value. Values after ≈ are worked out from the molar mass of the structure shown. Active and inactive are the calls of the source. The calls are words filed in the database; no cut-off is given here.

Calcium-dependent protein kinase 1 (Plasmodium falciparum), sequence (P62344 2-524 limits assumed): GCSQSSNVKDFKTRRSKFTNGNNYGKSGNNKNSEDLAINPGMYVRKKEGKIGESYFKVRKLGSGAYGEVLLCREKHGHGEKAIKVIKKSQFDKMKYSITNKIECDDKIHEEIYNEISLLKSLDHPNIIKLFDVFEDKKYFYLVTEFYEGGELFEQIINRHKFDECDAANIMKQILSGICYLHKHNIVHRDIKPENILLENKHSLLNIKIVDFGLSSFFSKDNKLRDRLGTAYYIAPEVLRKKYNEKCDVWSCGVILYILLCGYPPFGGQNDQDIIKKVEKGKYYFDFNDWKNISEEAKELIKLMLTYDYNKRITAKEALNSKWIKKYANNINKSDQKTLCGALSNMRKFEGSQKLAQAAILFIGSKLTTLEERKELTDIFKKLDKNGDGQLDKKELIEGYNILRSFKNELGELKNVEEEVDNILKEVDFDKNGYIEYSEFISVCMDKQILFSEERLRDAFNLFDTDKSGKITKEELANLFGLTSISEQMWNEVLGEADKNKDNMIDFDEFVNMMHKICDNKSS

For `COc1cc2nccc(Oc3ccc(NC(=O)Nc4ccc(CN5CCN(C)CC5)c(C(F)(F)F)c4)c(F)c3)c2cc1OC`, in the data set on Plasmodium falciparum [1], the pEC50 (as a rule, the negative decadic logarithm of the EC50, by convention in mol/L) is 6.96. Moreover, the CC50 (usually the concentration at which the toxic effect on the cells reaches its halfway point) in the data set on HepG2 [2] stood at 1000 nM. The solubility kinetic in data set [3] is 2.1 µM (≈ 1.29 µg/mL). Further, in data set [4], the Papp was 2.57 10^-6 cm/s. Also, in data set [5], the Activity is 1.6%.

Turning to `COc1cc2nccc(Oc3ccc(NC(=O)Nc4ccc(CC5CCNCC5)cc4)c(F)c3)c2cc1OC`, the negative logarithm of the EC50 (pEC50) with Plasmodium falciparum [1] was 6.80. Moreover, the CC50 in the data set on HepG2 [2] amounted to 4390 nM; in the data set with HepG2 [6] it was 3290 nM. Moreover, the outcome in the data set on Plasmodium berghei was inactive. Moreover, the solubility kinetic in data set [3] amounted to 10.9 µM (≈ 5.78 µg/mL). The Papp in data set [4] was < 0.669 10^-6 cm/s. Moreover, the Stability in data set [7] was 85.8%. Moreover, the Activity in the data set on Plasmodium falciparum [8] is 97%; with Plasmodium falciparum [9] it was 91%; in data set [10], 97%; with Plasmodium falciparum [11], 100%; in the data set on Plasmodium falciparum [12], 82%; with Plasmodium falciparum [13], 97%. Moreover, the Activity stood at 99% in the data set with Plasmodium falciparum [14]; 30% with Plasmodium falciparum [15]; 51% in data set [5]; 84% in the data set on Plasmodium falciparum [16]; 88% in the data set with Plasmodium falciparum [17].

Turning to `COc1cc2nccc(Oc3ccc(NC(=O)Nc4ccc(OC5CCN(C)CC5)c(C(F)(F)F)c4)c(F)c3)c2cc1OC`, the pEC50 with Plasmodium falciparum [1] is 7.40. In addition, the 50% cytotoxic concentration (CC50) amounted to 1000 nM with HepG2 [2] and 410 nM with HepG2 [6]. Moreover, the outcome with Plasmodium berghei was inactive. The solubility kinetic in data set [3] was found to be 1.5 µM (≈ 0.922 µg/mL). Also, the Papp in [4] is reported as < 0.513 10^-6 cm/s. Moreover, the Stability stood at 88.6% in [18] and 69.7% in [7]. In addition, the Activity in the data set on Plasmodium falciparum [8] worked out at 94%; in the data set with Plasmodium falciparum [19], 97%; in the data set with Plasmodium falciparum [9], 25%; in data set [10], 30%; in the data set on Plasmodium falciparum [11], 100%; with Plasmodium falciparum [12], 6%. Besides, the Activity stood at 94% in the data set on Plasmodium falciparum [13], 79% with Plasmodium falciparum [14], 20% with Plasmodium falciparum [15] and 78% in the data set with Plasmodium falciparum [17].

For the molecule `COc1cc2nccc(Oc3ccc(NC(=O)Nc4ccc(F)cc4F)c(F)c3)c2cc1OC`, the result with Plasmodium falciparum [1] was inactive. Moreover, the solubility kinetic in data set [3] was found to be 0.7 µM (≈ 0.329 µg/mL).

Consider `COc1cc2nccc(Oc3ccc(NC(=O)Nc4ccc(C=C5CCNCC5)cc4)c(F)c3)c2cc1OC`, for which the pEC50 with Plasmodium falciparum [1] is 6.85. The CC50 in the data set with HepG2 [2] was 2570 nM; in the data set with HepG2 [6], 6620 nM. Further, the outcome with Plasmodium berghei was inactive. In addition, the solubility kinetic in [3] was determined as 7.4 µM (≈ 3.91 µg/mL). Besides, in [4], the Papp is recorded as < 0.709 10^-6 cm/s. Also, the values for the Stability in data set [18] and in [7] were 88.6% and 86.7%, respectively. The Activity is 98% in the data set with Plasmodium falciparum [8]; 98% in the data set with Plasmodium falciparum [9]; 100% in data set [10]; 100% in the data set with Plasmodium falciparum [11]; 84% in the data set on Plasmodium falciparum [12]; 100% with Plasmodium falciparum [13]. Besides, the results for the Activity in the data set with Plasmodium falciparum [15] and in the data set on Plasmodium falciparum [17] were 38% and 96%, respectively.

As to `Cn1cnc2c(NCc3ccccc3)nc(NCCO)nc21` [OLOMOUCINE], the pIC50 (in general, the IC50 on a negative log10 scale, so that one unit is a factor of ten) in data set [20] was 3.74.

Consider `O=C(Nc1ccc(F)cc1F)Nc1ccc(Oc2cc(NCc3ccccc3)ncn2)cc1F`, for which the Activity in data set [21] came to 60%.

For `O=C(Nc1ccc(F)cc1F)Nc1ccc(Oc2ccnc3cc4c(cc23)OCCO4)cc1F`, the Activity in data set [21] was determined as 30%.

In the case of `O=C(Nc1ccc(F)cc1F)Nc1ccc(Oc2ccnc3cc4c(cc23)OCO4)cc1F`, the Activity in data set [21] came to 28%.

With `COc1cc2nccc(Oc3ccc(NC(=O)Nc4ccc(CC5CCNCC5)c(C(F)(F)F)c4)c(F)c3)c2cc1OC`, the negative-log EC50 (pEC50) in the data set with Plasmodium falciparum [1] is 7.41; in the data set with Plasmodium berghei (HepG2, 44 h), 6.66. For the same molecule, the half-maximal cytotoxic concentration (CC50) in the data set with HepG2 [2] and in the data set with HepG2 [6] was 1290 nM each time. Also, in data set [3], the solubility kinetic was found to be 2.1 µM (≈ 1.26 µg/mL). Besides, in data set [4], the Papp is reported as 0.734 10^-6 cm/s. Further, the Stability in [18] came out at 98.1%. Moreover, the Activity was 100% in the data set with Plasmodium falciparum [8]; 87% in the data set with Plasmodium falciparum [19]; 27% in the data set with Plasmodium falciparum [9]; 34% in data set [10]; 100% in the data set with Plasmodium falciparum [11]; 7% with Plasmodium falciparum [12]. Also, the Activity with Plasmodium falciparum [13] turned out to be 94%; with Plasmodium falciparum [14], 89%; with Plasmodium falciparum [15] it was 21%; in data set [5] it was 1.1%; in the data set on Plasmodium falciparum [16], 80%; with Plasmodium falciparum [17], 64%.
